Assays:
[1] = system: mouse adult neural stem cells; assay: Thymidine incorporation, adult mouse NSC, non-adherent culture; format: cell-based; conditions: non-adherent conditions, 3 days, all PACAP treatments relative to controls
Procedure: To determine thymidine incorporation into DNA, neurospheres were split and seeded in Neurosphere medium as single cells in 96-well plates, 10,000 cells/well. Substances to be measured were added in quadruplicates and cells were incubated at 37° C. for 3 days. 3H-thymidine, 10 uCi/ml, was present the last 24 hours. Cells were harvested on to a filter paper and radioactivity was measured. 3H-thymidine (6,7 Ci/mmol) was from PerkinElmer.

AP-1 = AP-1 transcription factor reporter assay; format: cell-based, mouse; conditions: PACAP 100 nM, 20 hours after induction, compared to non-induced cells
Procedure: Vectors: Vector DNA containing reporter elements for AP-1 and empty cloning vector (pTAL), with a luciferace reporter were purchased from Promega. The vectors were propagated in E. coli strain JM-109 (Promega) and purified with Qiagens maxi-prep Kit (Qiagen). The concentration was diluted to approximately 1 mg/ml per vector.
Transfection: Transient transfection was performed by seeding cells as above in suspension neurosphere cell culture and adherent neurosphere cell culture (1 to 3 day incubation) using 30,000 single cells/well. Each well was transiently transfected with […] plasmid, 0.6 μg Nupherin-neuron (Biomol) and 0,6 μl of Fugene-6 (Roche). Plasmid and Nupherin was mixed and diluted in DMEM/F12 to a total volume of 50 μl/well, and were incubated for 15 minutes prior to mixing with Fugene-6 that were diluted in DMEM/F12 to a total volume of 50 μl/well. The mix of plasmid and Nupherin and Fugene-6 were incubated for 20 min. The volume was adjusted to 100 μl prior to addition of 100 μl/well of transfection reagent.
Assay: The following day the transiently transfected cells were applied with PACAP (Bachem) to final concentration of 100 nM/well, in the presence or absence of MEK inhibitor, […] (Sigma-Aldrich). Luciferace activity was analysed with steady glow (Promega) according to the instructions of the manufacturer. Cells were analysed 20 hours after induction with PACAP.

CREB phosphorylation = assay: Western blot of phosphorylated CREB, differentiating adult mouse NSC, adherent; format: cell-based; conditions: 10 nM PACAP
Procedure: Adult mouse NSC and aHNSC were prepared and cultured as stated in Example 5 (Method A & B) and Example 2 (Method A), respectively. Cultures were exposed to 10 nM PACAP for the times indicated. After treatment, the cells were lysed in lysis buffer, as shown in Patrone et al. (Patrone, Andersson et al. 1999). DNA content was detemined by the use of a Pico Green-kit for ds DNA quantitation of cell extracts. Total protein measurements were performed with Nano Orange-kit. Equal amounts of protein were run on a gradient gel 4-12% Bis-Tris gel (NuPage/Mops buffer) and transferred to a nitrocellulose membrane. Western blot was performed and phosphorylated CREB was labelled using a rabbit anti phospho-CREB (1:1000, Upstate biotechnology), a secondary anti rabbit HRP antibodies (1:10.000). Phosphorylated CREB protein bands (43 kD) were detected using the ECL-kit (Amersham).

subventricular zone NSC = assay: PACAP/BrdU infusion, BrdU labelling of the lateral ventricle wall; format: in vivo, mouse; conditions: 600 nM pump concentration, 0.5 μl/hr into the lateral ventricle, 3.5 days, relative to vehicle
Procedure: 10 week old male mice (C57B1/2), maintained on a 12 hr light/dark cycle with food and water ad libidum, were infused in the right lateral ventricle with PACAP38 (Bachem), using a Alzet pump (1007D), for 3,5 days or 7 days at a daily dose of 31 ng/day (600 nM PACAP pump concentration infused at a rate of 0.5 μl/hr). Bromodeoxyuridine (BrdU) (50 mg/ml) was also included in the infusion vehicle (0.9% saline containing 1 mg/ml mouse serum albumin (Sigma)) to enable measurement of proliferation by quantitation of BrdU incorporation in the DNA. The group of infused with either PACAP/BrdU or vehicle/BrdU for 3,5 days and sacrificed at this time point. […]
Brains were cut into 14-μm coronal sections using a cryostat-microtome. […] After 1 hour of washing, the BrdU-antibody complex was detected using 0.05% diaminobenzidine with 0.01% H2O2, and counterstained with Hematoxylin. […]
For all BrdU labelling experiments, three to six sections per animal were analysed. […] The number of BrdU-labelled cells per area of dentate granule cell layer was counted manually. […] BrdU-positive cells were counted along 2×250 micrometer strips of the lateral ventricle wall (see FIG. 18). Area measurements of both the dentate granule cell layer and the “counted” region of the lateral ventricle wall (including the ependymal cell layer and subventricular zone) were made from each slide used for the cell counts. […]

## pituitary adenylate cyclase-activating polypeptide [PACAP]
[1]
  incorporation of tritiated thymidine: Greater incorporation of tritiated thymidine
AP-1
  AP-1 expression (luciferace activity): significantly induced
CREB phosphorylation; 15 min exposure
  CREB phosphorylation: upregulated
CREB phosphorylation; 240 min
  CREB phosphorylation: slightly above basal levels
Subventricular zone NSC
  proliferation in the subventricular zone of the lateral ventricle wall (BrdU-positive cells): significant increase in proliferation

Source: patent US20040038888A1 (priority 2002, published 2004)
